Tests used:
[1] = biological target: T1, PDIA3 (Homo sapiens, UniProt P30101); assay: Intrinsic tryptophan fluorescence quenching; type: binding
T1 construct: The mature recombinant form (devoid of the N-terminal […]) of the human PDIA3 protein was expressed and purified; made in house
T1 sequence (P30101 25-505): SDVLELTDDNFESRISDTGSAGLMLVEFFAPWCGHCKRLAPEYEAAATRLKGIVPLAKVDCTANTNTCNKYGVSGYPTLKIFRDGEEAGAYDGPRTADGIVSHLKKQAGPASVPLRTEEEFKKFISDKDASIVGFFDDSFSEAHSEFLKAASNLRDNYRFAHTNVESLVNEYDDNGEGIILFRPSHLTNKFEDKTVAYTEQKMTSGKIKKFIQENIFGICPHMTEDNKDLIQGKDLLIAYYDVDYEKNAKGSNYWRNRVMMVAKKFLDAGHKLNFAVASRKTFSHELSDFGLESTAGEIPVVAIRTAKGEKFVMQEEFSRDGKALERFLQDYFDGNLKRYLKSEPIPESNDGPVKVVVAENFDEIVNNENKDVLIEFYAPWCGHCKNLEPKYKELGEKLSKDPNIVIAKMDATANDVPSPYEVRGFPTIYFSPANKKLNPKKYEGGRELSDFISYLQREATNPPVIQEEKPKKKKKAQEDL
Description: In a previous article, we evaluated the ability of punicalagin to interact with PDIA1 and PDIA3 [40]. In this study, the results previously obtained were compared with those obtained using punicalin. The protein–ligand interaction was evaluated by intrinsic quenching analysis due to the presence, in both proteins, of aromatic amino acids, among which tryptophan residues represent the main source. Quenching analysis was performed on PDIA1 and PDIA3, in the reduced form, by adding increasing concentrations of punicalin and recording the fluorescence spectra of both proteins. […] Quenching of intrinsic tryptophan fluorescence of both proteins was assessed using the Stern–Volmer equation, as previously reported. To further characterize the binding process, fluorescence data were analyzed using the equation described by Bi et al. and the reiterative calculation process described by Sun et al., providing an estimated value of the dissociation constant (Kd). The values of the Stern–Volmer constant (KSV) and the Kd obtained for punicalin are summarized in Table 1 and compared with those obtained for punicalagin [40]. The comparison of the results confirms that punicalin can bind both PDIs, although showing a slightly lesser affinity with respect to punicalagin.
The mature recombinant form (devoid of the N-terminal […]) of the human PDIA3 protein was expressed and purified according to the procedure previously described. […] In both cases, protein purification was evaluated by SDS-PAGE and Coomassie Blue staining, while the concentration was spectrophotometrically estimated using the extinction coefficient (PDIA3 in the reduced form, ε280 = 44,810 M^−1cm^−1; PDIA1 in the reduced form, ε280 = 45,567 M^−1cm^−1).
Protein–ligand interactions were evaluated by titration of intrinsic fluorescence quenching. Protein mission spectra were recorded by a SPEX-FluoroMax spectrofluorometer (Horiba Scientific, Piscataway, NJ, USA) from 300 to 400 nm, with an excitation wavelength set at 290 nm, emission slit set width, a 2 nm bandpass, and a scan speed set at 120 nm min^−1. […] The emission spectrum of the protein was recorded and the fluorescence intensities at 338 nm, obtained in at least three independent titration experiments, were used for quenching analyses, as previously described. Quenching of intrinsic tryptophan fluorescence at 338 nm was analyzed by the Stern–Volmer equation (Fo/F = 1 + KSV[L]), where F and Fo are the fluorescence intensity, respectively with or without ligand (L), and KSV is the Stern–Volmer constant value. Fluorescence data at 338 nm were also analyzed using the equation described by Bi et al. and the reiterative calculation process described by Sun et al., providing an estimated value of Kd.

[2] = biological target: T2, PDIA1 (Homo sapiens, UniProt P07237); assay: Insulin turbidity assay, disulfide reductase activity; type: biochemical; conditions: insulin substrate, PDIA1 800 nM, reducing conditions
T2 construct: The mature human PDIA1 with an N-terminal His6x-tag was expressed and purified; His6 (N); made in house
T2 sequence (P07237 18-508): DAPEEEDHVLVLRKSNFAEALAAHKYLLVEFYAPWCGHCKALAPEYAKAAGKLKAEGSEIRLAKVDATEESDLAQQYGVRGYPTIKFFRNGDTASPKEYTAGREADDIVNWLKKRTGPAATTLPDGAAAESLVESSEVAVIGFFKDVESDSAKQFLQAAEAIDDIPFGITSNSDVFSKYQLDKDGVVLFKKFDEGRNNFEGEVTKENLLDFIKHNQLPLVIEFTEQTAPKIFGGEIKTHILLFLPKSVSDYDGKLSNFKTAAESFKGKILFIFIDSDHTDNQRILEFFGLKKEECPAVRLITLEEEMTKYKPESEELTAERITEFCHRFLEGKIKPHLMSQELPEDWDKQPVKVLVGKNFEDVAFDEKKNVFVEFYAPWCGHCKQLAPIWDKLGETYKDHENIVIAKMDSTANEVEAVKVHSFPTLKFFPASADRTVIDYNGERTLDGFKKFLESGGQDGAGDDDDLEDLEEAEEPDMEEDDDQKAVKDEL
Description: To further evaluate the inhibitory effect of punicalin and punicalagin on the enzymatic activity of the two proteins, we performed a different assay using insulin, a physiologically more appropriate substrate. The results obtained are reported in Figure 4 and show again a lesser inhibitory effect of punicalin compared to punicalagin, as observed with the glutathione-based assay.
PDI disulfide reductase activity was assayed by measuring the reduction of insulin catalyzed by PDIs with DTT. A 50 μM stock solution of each PDI was reduced using TCEP (5 mM final concentration) for 90 min at room temperature. […] After incubation, an equal volume of the 2× reaction mixture (consisting of DTT 50 μM and human insulin 0.32 mM) was added. Protein activity was evaluated by monitoring the increase in turbidity of the solutions at 600 nm.
In both assays, the inhibition constants were extrapolated by GraphPad Prism 8.0 software (GraphPad Software, San Diego, CA, USA), plotting the obtained data as logarithm dose–response curves.

[3] = test system: PDIA3 in T98G cells; assay: Cellular distribution of PDIA3 by immunofluorescence; type: cell-based, human; conditions: 5 µM for 48 h and 20 µM for 24 h
Description: (§1) Possible changes in the cellular distribution of PDIA3 were previously studied by immunofluorescence assay. Recently, Bilches Medinas et al. reported that a PDIA3 mutation with the loss of functions induced protein aggregation. […] T98G and U87 MG cells were treated with 5 µM and 20 µM of punicalin for 48 h and 24 h, respectively (Figure 8).
(§2) T98G and U-87 MG cells were seeded on coverslips into 6-well plates (200,000 cells/well) and incubated for 24 h and 48 h in the presence of 5 µM and 20 µM punicalagin/punicalin. Cells grown on coverslips were washed with PBS, fixed with 3.7% formaldehyde for 20 min, rinsed with PBS, and then permeabilized with cold methanol (−20 °C) for 5 min. Immunofluorescence analysis was performed according to Paglia et al. using a specific primary antibody against PDIA3 (Millipore, Milan, Italy, cat. ABE1032). Coverslips were mounted on glass microscope slides with DuolinkTM mounting medium and examined using a fluorescence microscope (Leica AF6000 Modular System, Leica, Milan, Italy) with a 63× oil immersion objective. Samples were captured under the same acquisition parameters.

[4] = test system: PDIA3 in U87 MG cells; assay: as above; type: cell-based, human; conditions: 5 µM for 48 h and 20 µM for 24 h
Description: as §1, §2

SMILES: O=C1OC[C@H]2OC(O)[C@H](O)[C@@H](O)[C@@H]2OC(=O)c2cc(O)c(O)c(O)c2-c2c(O)c(O)c3oc(=O)c4c(c(O)c(O)c5oc(=O)c2c3c54)-c2c1cc(O)c(O)c2O (mixture of isomers) [Punicalin, punicalin]
- Stern–Volmer constant (KSV) ([1]; reduced PDIA3 0.1 × 10^−6 M, pH 7.4, 25 °C, mean and SEM): 73.7 ± 0.7 M^−1 × 10^3
- Kd ([1]; reduced PDIA3, pH 7.4, 25 °C, estimated from quenching data, read-out: dissociation constant (Kd)): 14 µM
- IC50 [2]: > 250 µM
- change in cellular distribution of PDIA3 [3]: marked change in the fluorescence pattern and a cellular redistribution of PDIA3
- change in cellular distribution of PDIA3 [4]: marked change in the fluorescence pattern and a cellular redistribution of PDIA3

Reference: PMC11476419, “Analysis of Punicalin and Punicalagin Interaction with PDIA3 and PDIA1” (International Journal of Molecular Sciences, 2024)
